# According to patent US20240383908A1, “SYNTHESIS AND APPLICATION OF PHOSPHATASE DEGRADER” (HINOVA PHARMACEUTICALS INC., priority 2021, published 2024):
# Biological target: T1, SHP2 protein (Homo sapiens, UniProt Q06124)
# T1 sequence (Q06124 1-593): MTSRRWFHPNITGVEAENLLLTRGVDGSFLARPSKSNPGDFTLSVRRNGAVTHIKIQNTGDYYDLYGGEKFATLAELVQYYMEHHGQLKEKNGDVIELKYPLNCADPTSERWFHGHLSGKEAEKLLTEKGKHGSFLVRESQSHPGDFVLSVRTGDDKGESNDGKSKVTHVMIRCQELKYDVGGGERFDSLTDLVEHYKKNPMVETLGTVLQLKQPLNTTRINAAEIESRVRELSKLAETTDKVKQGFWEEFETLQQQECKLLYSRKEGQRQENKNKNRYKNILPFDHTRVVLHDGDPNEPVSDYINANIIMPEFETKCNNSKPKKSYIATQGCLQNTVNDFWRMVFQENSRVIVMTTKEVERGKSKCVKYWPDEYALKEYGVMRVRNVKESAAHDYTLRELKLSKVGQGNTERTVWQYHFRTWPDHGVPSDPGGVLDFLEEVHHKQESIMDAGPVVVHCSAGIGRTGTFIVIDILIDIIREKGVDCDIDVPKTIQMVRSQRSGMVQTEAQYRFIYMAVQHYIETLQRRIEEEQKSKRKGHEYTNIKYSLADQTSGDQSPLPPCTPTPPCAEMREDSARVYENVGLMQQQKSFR
# Test: Degradation activity on SHP2 protein in MIA Paca-2 cells (Western blot, DC50)
# Type: cell-based
# Design: endogenous in cells; host or cells: MIA Paca-2 cells
# Conditions: read-out: Degradation activity for differenct cell lines MIA Paca-2 (DC50)
# Method in brief: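 Cells were treated 24 h at 37 °C with compound (0.1–100 nM final, 0.1% DMSO). SHP2 was measured by Western blot with GAPDH as loading control, densitometry normalized to DMSO (100%). DC50, the concentration giving 50% degradation, came from a dose-response fit.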
row,SMILES,DC50
1,CC1(N)CCN(c2cnc(Sc3cccc(NC(=O)c4ccc(N5CCC(N6CCN(c7ccc(C(=O)NCc8ccc9c(c8)CN(C8CCC(=O)NC8=O)C9=O)cc7F)CC6)CC5)c(F)c4)c3)cn2)CC1 (stereo not shown) [Compound 499],< 100 nM
2,CC1(N)CCN(c2cnc(Sc3cccc(NC(=O)c4ccc(N5CCC(N6CCN(c7ccc(C(=O)NCc8ccc9c(c8)CN(C8CCC(=O)NC8=O)C9=O)c(F)c7)CC6)CC5)cc4)c3)cn2)CC1 (stereo not shown) [Compound 502],< 100 nM
3,CC1(N)CCN(c2cnc(Sc3cccc(NC(=O)c4ccc(N5CCC(N6CCN(c7ccc(C(=O)NCc8ccc9c(c8)CN(C8CCC(=O)NC8=O)C9=O)c(F)c7)CC6)CC5)c(F)c4)c3)cn2)CC1 (stereo not shown) [Compound 503],< 100 nM
4,C[C@@H]1OCC2(CCN(c3cnc(Sc4cccc(NC(=O)c5ccc(C6CC(N7CC=C(c8ccc(C(=O)NCc9ccc%10c(c9)CN(C9CCC(=O)NC9=O)C%10=O)nc8)CC7)C6)cc5)c4)cn3)CC2)[C@@H]1N (stereo partly shown) [Compound 504],< 100 nM
5,CC1(N)CCN(c2cnc(Sc3cccc(NC(=O)c4ccc(N5CCC(N6CCC(c7ccc(C(=O)NCc8ccc9c(c8)CN(C8CCC(=O)NC8=O)C9=O)cc7)C(F)C6)CC5)c(F)c4)c3)cn2)CC1 (stereo not shown) [Compound 506],< 100 nM
6,Cc1cc(C(=O)Nc2cccc(Sc3cnc(N4CCC(C)(N)CC4)cn3)c2)ccc1N1CCC(N2CCN(c3nnc(C(=O)NCc4ccc5c(c4)CN(C4CCC(=O)NC4=O)C5=O)cc3Cl)CC2)CC1 (stereo not shown) [Compound 507],< 100 nM
7,CC1(N)CCN(c2cnc(Sc3cccc(NC(=O)c4ccc(N5CCC(N6CCN(c7cnc(C(=O)NCc8ccc9c(c8)CN(C8CCC(=O)NC8=O)C9=O)cc7Cl)CC6)CC5)cc4)c3)cn2)CC1 (stereo not shown) [Compound 508],< 100 nM

# Results, then the compound that gave them:
row,DC50,SMILES
1,< 100 nM,CC1(N)CCN(c2cnc(Sc3cccc(NC(=O)c4cnc(N5CCC(N6CCN(c7ccc(C(=O)NCc8ccc9c(c8)CN(C8CCC(=O)NC8=O)C9=O)nn7)CC6)CC5)cn4)c3)cn2)CC1 (stereo not shown) [Compound 509]
2,< 100 nM,C[C@@H]1OCC2(CCN(c3cnc(Sc4cccc(NC(=O)c5ccc(N6CCC(N7CCC(c8ccc(C(=O)NCc9ccc%10c(c9)CN(C9CCC(=O)NC9=O)C%10=O)cc8)C(F)C7)CC6)c(F)c5)c4)cn3)CC2)[C@@H]1N (stereo partly shown) [Compound 510]
3,< 100 nM,CC1(N)CCN(c2cnc(Sc3cccc(NC(=O)c4ccc(N5CCC(N6CC=C(C7CCC(C(=O)NCc8ccc9c(c8)CN(C8CCC(=O)NC8=O)C9=O)CC7)CC6)CC5)c(F)c4)c3)cn2)CC1 (stereo not shown) [Compound 511]
4,100 to 1000 nM,C[C@@H]1OCC2(CCN(c3cnc(Sc4cccc(NC(=O)c5ccc(N6CCC(N7CC=C(C8CCC(C(=O)NCc9ccc%10c(c9)CN(C9CCC(=O)NC9=O)C%10=O)CC8)CC7)CC6)c(F)c5)c4)cn3)CC2)[C@@H]1N (stereo partly shown) [Compound 512]
5,< 100 nM,CC1(N)CCN(c2cnc(Sc3cccc(NC(=O)c4ccc(N5CCC(N6CCN(c7ccc(C(=O)NCc8ccc9c(c8)CN(C8CCC(=O)NC8=O)C9=O)cc7F)CC6)CC5)cc4)c3)cn2)CC1 (stereo not shown) [Compound 513]
6,< 100 nM,C[C@@H]1OCC2(CCN(c3cnc(Sc4cccc(NC(=O)c5ccc(N6CCC(N7CCN(c8ccc(C(=O)NCc9ccc%10c(c9)CN(C9CCC(=O)NC9=O)C%10=O)cc8F)CC7)CC6)c(F)c5)c4)cn3)CC2)[C@@H]1N (stereo partly shown) [Compound 515]
7,< 100 nM,C[C@@H]1OCC2(CCN(c3cnc(Sc4cccc(NC(=O)c5ccc(N6CCC(N7CC=C(c8ccc(C(=O)NCc9ccc%10c(c9)CN(C9CCC(=O)NC9=O)C%10=O)nc8)CC7)C6)c(F)c5)c4)cn3)CC2)[C@@H]1N (stereo partly shown) [Compound 516]
8,100 to 1000 nM,C[C@@H]1OCC2(CCN(c3cnc(Sc4cccc(NCc5ccc(N6CCC(N7CC=C(c8ccc(C(=O)NCc9ccc%10c(c9)CN(C9CCC(=O)NC9=O)C%10=O)nc8Cl)CC7)CC6)c(F)c5)c4)cn3)CC2)[C@@H]1N (stereo partly shown) [Compound 518]
9,< 100 nM,C[C@@H]1OCC2(CCN(c3cnc(Sc4cccc(NC(=O)c5ccc(N6CCC(N7CC=C(c8ccc(C(=O)NCc9ccc%10c(c9)CN(C9CCC(=O)NC9=O)C%10=O)nn8)CC7)C6)cc5)c4)cn3)CC2)[C@@H]1N (stereo partly shown) [Compound 520]

# Biological target: T1, SHP2 protein
# Test: Degradation activity on SHP2 protein in MV-411 cells (Western blot, DC50)
# Type: cell-based
# Design: endogenous in cells
# Conditions: MV411 cells, 24 hours, read-out: Degradation activity for differenct cell lines MV411 (DC50)
# Experimental: • MV-411 cell line (COBIER, CBP-60522) • FBS (GEMINI, Cat. No. 900-108) • 0.01M PBS (Biosharp, Cat. No. 162262) • IMDM (Hyclone, Cat. No. SH30228.01) • Penicillin-Streptomycin (Gibco, Cat. No. 15140122) • DMSO (Sigma, Cat. No. D5879) • Centrifuge Tube, 15 ml (Excell Bio, Cat. No. CS015-0001) • Cell Culture Dish, (WHB, Cat. No. CS016-0128) • 12-well cell culture cluster (Corning, Cat. No. 3513) • RIPA lysate buffer (Thermo, Cat. No. 89900) • Protein Loding Buffer (Beyotime, Cat. No. P0015L) • BCA Protein Assay Kit (EpiZyme, Cat. No. ZJ102) • SDS-PAGE Fast Preparation Kit (EpiZyme, Cat. No. PG112) • Anti-GAPDH (14C10) Rabbit mAb (CST, Cat. No. 2118L) • Anti-SHP2 rabbit mAb (CST, Cat. No. 37525) • Peroxidase Affinipure (HRP) Goat Anti-Rabbit IgG (Zen Bioscience, Cat. No. 511203) • TBST (Biosharp, Cat. No. BL601A) • ECL chemiluminescence kit (4A Biotech, Cat. No. 4AW011-200)
# • (1) Cell culture medium: IMIDM medium+10% FBS+1% Pen Strep; • (2) PBS buffer: PBS powder was dissolved in 2 L of ultrapure water and sterilized; • (3) Cell lysate: RIPA lysate buffer is added with protease inhibitors at a ratio of 1:1000 before use.
# (1) MV-411 cells were cultured in the cell culture medium, and then well-growing cells were selected and inoculated in a 12-well plate, with 1 mL/well and 1×10^6 cells/well. The plate was incubated overnight in a 5% CO2 cell incubator at 37° C.
# (2) 10 mM storage solution of each drug was prepared using dimethylsulfoxide (DMSO). The stock solution was diluted gradually with DMSO before use, and then 1 μL of the compound solution was added to the cell culture well (to ensure that the DMSO concentration in the culture system was […]), so that the final drug concentration is 100 nM, 10 nM, 3 nM, 1 nM, 0.3 nM, and 0.1 nM. Two wells were set for each concentration. The plate was gently shaken and mixed. Additionally, negative control wells (containing an equal amount of DMSO) and positive control wells were included.
# (3) After 24 hours of cultivation, the cells were lysed using RIPA cell lysate, and the proteins were extracted. The protein concentration was measured using a BCA assay kit. 5× concentrated protein buffer was loaded, heated at 100° C. for 5 min, and then the sample was stored at −20° C.
# (4) For each well, 30 μg of protein was loaded to polyacrylamide gel for electrophoresis.
# (5) The protein was transferred from polyacrylamide gel to PVDF membrane, and sealed at room temperature with 5% skimmed milk for 1 h, which was then incubated with the primary antibodies (Anti-SHP2 rabbit mAb and Anti-GAPDH rabbit mAb) at 4° C. overnight. The membrane was washed three times with TBST solution, 10 minutes for each time. After that, the membrane was incubated with the secondary antibodies (horseradish peroxidase labeled goat anti-rabbit IgG) at room temperature for 2 h, and then washed three times with TBST solution, 10 minutes for each time, followed by exposure.
# (6) The images were analyzed with Image J grayscale, and the degradation ratio of protein bands in the test group was calculated, based on the negative control group (DMSO) (100%).
# (7) Using the Dose-response-inhibition equation in the data processing software GraphPad Prism 8, the DC50 value was obtained (which represents the drug concentration corresponding to 50% degradation of the target protein).
# Finally, ECL detection solution was added for color development, and photos were taken with an automatic chemiluminescence instrument, so as to collect images and analyze them.
row,DC50,SMILES
1,> 1000 nM,CC1(N)CCN(c2cnc(Sc3cccc(NC(=O)CCCCC(=O)Nc4cccc5c4CN(C4CCC(=O)NC4=O)C5=O)c3)cn2)CC1 (stereo not shown) [Compound 1]
2,100 to 1000 nM,CC1(N)CCN(c2cnc(Sc3cccc(NC(=O)CCCCCCCC(=O)NCc4ccc5c(c4)CN(C4CCC(=O)NC4=O)C5=O)c3)cn2)CC1 (stereo not shown) [Compound 2]
3,100 to 1000 nM,CC1(N)CCN(c2cnc(Sc3cccc(NC(=O)COCCOCCOCCOCC(=O)NCc4ccc5c(c4)CN(C4CCC(=O)NC4=O)C5=O)c3)cn2)CC1 (stereo not shown) [Compound 3]
4,100 to 1000 nM,CC1(N)CCN(c2cnc(Sc3cccc(NC(=O)COCCOCCOCCOCC(=O)Nc4ccc5c(c4)C(=O)N(C4CCC(=O)NC4=O)C5)c3)cn2)CC1 (stereo not shown) [Compound 4]
5,> 1000 nM,CC1(N)CCN(c2cnc(Sc3cccc(NC(=O)CC(=O)Nc4cccc5c4CN(C4CCC(=O)NC4=O)C5=O)c3)cn2)CC1 (stereo not shown) [Compound 5]
6,100 to 1000 nM,Cc1ncsc1-c1ccc([C@H](C)NC(=O)[C@@H]2C[C@@H](O)CN2C(=O)[C@@H](NC(=O)COCCOCCOCCOCC(=O)Nc2ccc(Sc3cnc(N4CCC(C)(CN)CC4)cn3)c(Cl)c2)C(C)(C)C)cc1 [Compound 7]
7,> 1000 nM,CC1(CN)CCN(c2cnc(Sc3ccc(NC(=O)COCCOCC(=O)Nc4ccc5c(c4)C(=O)N(C4CCC(=O)NC4=O)C5)cc3Cl)cn2)CC1 (stereo not shown) [Compound 8]
8,> 1000 nM,CC1(N)CCN(c2cnc(Sc3cccc(NC(=O)CC(=O)Nc4ccc5c(c4)C(=O)N(C4CCC(=O)NC4=O)C5)c3)cn2)CC1 (stereo not shown) [Compound 9]
9,> 1000 nM,CC1(CN)CCN(c2cnc(Sc3ccc(NC(=O)COCCOCCOCCOCC(=O)Nc4ccc5c(c4)C(=O)N(C4CCC(=O)NC4=O)C5)cc3Cl)cn2)CC1 (stereo not shown) [Compound 11]
10,< 100 nM,Cc1ncsc1-c1ccc([C@H](C)NC(=O)[C@@H]2C[C@@H](O)CN2C(=O)[C@@H](NC(=O)COCCOCCOCCOCC(=O)Nc2cccc(Sc3cnc(N4CCC(C)(N)CC4)cn3)c2)C(C)(C)C)cc1 [Compound 12]
11,< 100 nM,CC1(CN)CCN(c2cnc(Sc3cccc(NC(=O)CCC(=O)N4CCN(CCCCCCCCC(=O)Nc5cccc6c5CN(C5CCC(=O)NC5=O)C6=O)CC4)c3Cl)cn2)CC1 (stereo not shown) [Compound 13]
12,< 100 nM,CC1(CN)CCN(c2cnc(Sc3cccc(NC(=O)CCC(=O)N4CCN(CCCCCCCCC(=O)Nc5ccc6c(c5)CN(C5CCC(=O)NC5=O)C6=O)CC4)c3Cl)cn2)CC1 (stereo not shown) [Compound 14]
